From publication PMC4128473 (Bioorganic & medicinal chemistry, 2014) come the findings set out here.

The structures appear in SMILES notation.

For this assay, the target named is T1, hA3AR (Homo sapiens, UniProt P0DMS8).
T1 sequence (P0DMS8 1-318): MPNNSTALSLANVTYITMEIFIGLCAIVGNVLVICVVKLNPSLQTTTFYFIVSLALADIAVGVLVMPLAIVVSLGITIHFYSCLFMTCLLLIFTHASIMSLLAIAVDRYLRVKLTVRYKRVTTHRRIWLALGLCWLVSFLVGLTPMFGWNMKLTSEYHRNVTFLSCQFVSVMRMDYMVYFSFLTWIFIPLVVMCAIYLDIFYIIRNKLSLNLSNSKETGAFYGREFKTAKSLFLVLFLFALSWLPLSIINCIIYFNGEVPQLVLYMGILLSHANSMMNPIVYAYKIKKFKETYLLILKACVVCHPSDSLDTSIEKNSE
Format: cell-based. Conditions: compared to Cl-IB-MECA as reference full agonist.

For `COc1ccc(Cl)cc1CNc1ncnc2c1ncn2[C@@H]1OC[C@@](O)(CO)[C@H]1O` [11c, 1′-[N^6-(2-Methoxy-5-chlorobenzyl)adenin-9-yl]-α-D-apio-L-furanose], the “functional behaviour at hA3AR (cAMP assay)” value was “partial agonist”.
Take `COc1ccc(Cl)cc1CNc1ncnc2c1ncn2[C@@H]1OC[C@](O)(CO)[C@H]1O` [10c, 1′-[N^6-(2-Methoxy-5-chlorobenzyl)-adenin-9-yl]-β-D-apio-D-furanose]: the “functional behaviour at hA3AR (cAMP assay)” value is “inactive”.
